Results as given in patent US20250170246A1 (priority 2022, published 2025).
“Also recorded” adds a separate entry of the source.

Assays:
[1] = tested on: SARS CoV-2 (WA1 strain); assay type: in vivo, K18-hACE2-Tg mice
[2] = tested on: SARS CoV-2 (WA1 strain); experiment: SARS CoV-2-infected human precision-cut lung slices, IL-8 in culture supernatants; assay type: cell-based; details: 100 μM CDP-choline added daily, 4×10^5 TCID50 SARS CoV-2 WA1, 2 and 3 dpi, vs. saline
Excerpt: CDP-choline reduces SARS CoV-2-induced inflammation in vitro.

[3] = tested on: influenza; experiment: Antiviral effect against influenza
[4] = cited from earlier work
[5] = administered parenterally; cited from earlier work
[6] = multiple human clinical trials; cited from earlier work
[7] = ultimately excreted in expired CO2 and via urine; cited from earlier work
[8] = male K18-hACE2-Tg mice, 5 mg/kg i.p. daily, 4 dpi, relative to infected saline-treated mice
[9] = male K18-hACE2-Tg mice, 10^5 TCID50 SARS CoV-2 WA1, 5 mg/kg i.p. daily 1-3 dpi, read at 4 dpi

C[N+](C)(C)CCOP(=O)(O)OP(=O)(O)OC[C@H]1O[C@@H](n2ccc(N)nc2=O)C(O)C1O (stereo partly shown) [CDP-choline, Cytidine diphosphate-choline]
reduction of whole lung ccl-3/mip-1a gene expression ([1]; CoV-2-infected male K18-hACE2-Tg mice): > 5 fold | reduction of whole lung il-6 gene expression [1, 8]: > 5 fold | reduction of whole lung kc/cxcl-1 gene expression [1, 8]: > 5 fold | SARS CoV-2 replication in the lungs (in words) ([1]; male K18-hACE2-Tg mice, 5 mg/kg i.p. daily, 4 dpi, vs. saline, 5 mg/kg): significantly reduces; also recorded: significantly decreased | SARS CoV-2-induced bradycardia (heart rate) [1, 9]: prevents development; also recorded: completely prevented; also recorded: attenuated | SARS CoV-2-induced hypoxemia (carotid arterial % O2 saturation, SaO2) [1, 9]: prevents development; also recorded: completely prevented; also recorded: reversed | reduction of viral replication ([1]; male K18-hACE2-Tg mice, daily post-infection CDP-choline): 0.5 logs | production of IL-8 by SARS CoV-2-infected human precision-cut lung slices [2]: reduced production; also recorded: significantly reduced; also recorded: attenuated | antiviral effect against influenza [3]: no such antiviral effect | aqueous solubility [4]: high | bioavailability [5]: excellent | safety in human clinical trials [6]: safe | metabolism of CDP-choline not incorporated into phospholipids [7]: rapidly metabolized into cytidine and choline
